Experimental findings from patent publication US20190282600A1, “COMBINATION THERAPIES TARGETING TERT DEPENDENCY FOR CANCER THERAPY” (The Wistar Institute of Anatomy and Biology, priority 2018, published 2019) are described below.

SMILES strings stand for the structures.

Test [1] has as its system NRAS mutant melanoma cells. The test can be described thus: Global DNA damage, γH2AX staining by flow cytometry. The class given is cell-based, Human. To be noted: 1 μM 6-thio-dG for 7 days. On the procedure:
(§1) FIGS. 2a to 2c show NRAS^mut melanoma cells (FIG. 2a), BRAF-V600E/NRAS mutant cells derived from melanoma patients resistant to BRAF/MEK inhibitors (FIG. 2b), or non-transformed melanocytes and fibroblasts (FIG. 2c) were treated with 6-thio-dG for 7 days. Cell viability was measured by Alamar Blue assay and calculated relative to DMSO-treated cells. […] Cell death was assessed by PSVUe staining. Percent of apoptotic cells is shown. […] Mean TRF length expressed as kilobase pairs is indicated at the bottom. […] FIG. 2g provides a bar graph showing that DNA damage was assessed by γH2AX staining. Data represent average from three independent experiments ±SEM. *p<0.05; **p<0.01; ***p<0.005 in unpaired Student's t-test. As presented in FIG. 2h, mice bearing established WM3000 or M93-047 NRAS^mut tumors were treated with vehicle control or 6-thio-dG (2.5 mg/kg i.p; q.d). Tumor volume was measured and average tumor volume (n=4) ±SEM was plotted vs. time.
For assessment of global DNA damage cells were fixed and permeabilized with BD CytoFix/Perm reagent following the manufacturer's instructions and incubated with γH2AX antibody (Cell Signaling Technology, Danvers, Mass.) for 1 h at room temperature followed by 1 h incubation with Alexa-647 anti-Rabbit secondary antibody. Mean fluorescence staining was quantified by flow cytometry. […]
For orientation: A flow cytometer gives signals particle by particle.

In test [2] the test system is NRAS mutant melanoma cells. Kind of test: Reactive oxygen species by flow cytometry (H2DCFDA, MitoSox Red). The class given is cell-based, Human. The note with it: 1 μM 6-thio-dG for 7 days. On the procedure: as §1, with “Data represent average from three independent experiments ±SEM. *p<0.05; **p<0.01; ***p<0.005 in unpaired Student's t-test. As presented in FIG. 2h, mice bearing established WM3000 or M93-047 NRAS^mut tumors were treated with vehicle control or 6-thio-dG (2.5 mg/kg i.p; q.d).” left out
FIGS. 3a to 3g provides graphs showing that telomere dysfunction enhances oxidative stress leading to upregulation of an antioxidant program. […] Mitochondrial superoxide production was measured by MitoSox Red fluorescence (FIGS. 3c, and 3d) and expressed as fluorescence relative to vector or DMSO controls. […] Transduced M93-047 cells were treated with DMSO or 1 μM of 6-thio-dG and cell death was assessed by Annexin V/PI straining. […] Transduced cells were treated with increasing doses (1, 2.5 and 5 μM) of 6-thio-dG for 7 days and cell death was assessed. […]
General or mitochondrial specific ROS were measured by flow cytometry H2DCFDA or MitoSoxRed (Invitrogen, Waltham, Mass.) following manufacturer's specifications.

The subject of test [3] is NRAS mutant tumors (WM3000, M93-047). Kind of test: NRAS mutant melanoma xenograft tumors in mice. Format: in vivo. The note with it: for tumor growth: 6-Thio-dG 2.5 mg/kg i.p. q.d., single agent. Here is the method: as §1
FIGS. 6a to 6e provide results showing that combining 6-thio-dG and Gamitrinib inhibits the growth of 3D melanoma spheroids and NRAS-mutant xenograft tumors. Collagen-embedded melanoma spheroids were treated with DMSO, 6-thio-dG (5 μM) and Gam (5 μM) as in FIGS. 4a to 4e. On day 7, spheroids were stained with Calcein AM (live cells; green) and EtBr (dead cells; red) and imaged using an inverted microscope (4X; scale bar=250 μm). […] P values were calculated using unpaired Student's t-test. *p<0.05, ** p<0.01, ***p<0.005, when comparing vehicle control vs. combination treatment groups. […] Kaplan Meier survival curves of mice treated for 14 days. p-values were calculated by Mantel-Cox log-rank test; *p<0.05, **p<0.01, ***p<0.005. Animal weight (grams) before treatment (Start of TX) and at the end of the study (End of TX) was assessed, recorded for every mouse enrolled in the study and plotted in FIG. 6e. […] Statistical significance was assessed by unpaired Student's t-test.
All animal experiments were performed in accordance with institutional guidelines. […] Tumor growth was measured twice weekly with digital calipers. […]

On to `Nc1nc2c(ncn2[C@H]2C[C@H](O)[C@@H](CO)O2)c(=S)[nH]1` [6-thio-dG, 6-thio-2′-deoxyguanosine], for which the γH2AX result in test [1] is given as “increased levels”. In test [2], the “ROS levels (H2DCFDA)” value was “increased levels” and the “mitochondrial ROS levels (MitoSox Red)” value is reported as “increased mitochondrial ROS levels”. The tumor growth entry in test [3] was “slowed, but did not completely abrogated tumor growth”. Besides, the tumor growth result in test [3] (listed as 6-Thio-dG) was “slowed the growth of tumors”. The “reduction in tumor volume” value in test [3] (6-Thio-dG 2.5 mg/kg, after 14 days of treatment) is reported as “approximately 50%”.
